# Calls of active or inactive are those of the source. The rule behind the calls is not given here.
# Assays:
# RG2 [1] = assay: Induction of cell cycle arrest in rat RG2 cells assessed as accumulation at G2/M phase at 112.4 uM after 12 hrs by propidium iodide staining based flow cytometric analysis (reference value: 20.04 +/- 0.55%); type: functional
# DBTRG-05MG [2] = assay: Inhibition of JNK phosphorylation at Thr183/Tyr185 residues in human DBTRG-05MG cells at 112.4uM after 48 hrs in presence of TMZ by Western blot analysis (reference value: 1); type: cell-based
# RG2 [3] = assay: Synergistic cytotoxicity against rat RG2 cells assessed as synergistic effect index at 134.9 uM after 48 hrs in presence of 309 uM TMZ by MTT assay; type: functional
# [4] = Synergistic cytotoxicity against rat CTX TNA2 cells assessed as combination index at 134.9 uM after 48 hrs in presence of 515.1 uM TMZ by MTT assay; type: cell-based; conditions: ctx tna2, 48 h
# RG2 [5] = assay: Induction of cell cycle arrest in rat RG2 cells assessed as accumulation at S phase at 112.4 uM after 12 hrs by propidium iodide staining based flow cytometric analysis (reference value: 20.15 +/- 2.44%); type: functional
# DBTRG-05MG [6] = assay: Induction of cell cycle arrest in human DBTRG-05MG cells assessed as accumulation at G0/G1 phase at 112.4 uM after 48 hrs in presence of TMZ by propidium iodide staining based flow cytometric analysis (reference value: 47.16 +/- 1.55%); type: functional
# [7] = Synergistic cytotoxicity against rat CTX TNA2 cells assessed as synergistic effect index at 134.9 uM after 48 hrs in presence of 412.1 uM TMZ by MTT assay; type: cell-based; conditions: ctx tna2, 48 h
# DBTRG-05MG [8] = assay: Induction of apoptosis in human DBTRG-05MG cells assessed as increase in apoptotic body formation at 112.4 uM after 48 hrs in presence of TMZ by TUNEL assay; type: functional, cell-based
# RG2 [9] = assay: Induction of cell cycle arrest in rat RG2 cells assessed as accumulation at S phase at 112.4 uM after 24 hrs in presence of TMZ by propidium iodide staining based flow cytometric analysis (reference value: 20.15 +/- 2.44%); type: functional
# DBTRG-05MG [10] = assay: Induction of apoptosis in human DBTRG-05MG cells assessed as phosphorylated caspace-9 expression at 112.4 uM after 48 hrs in presence of TMZ by Western blot analysis (reference value: 1); type: functional
# DBTRG-05MG [11] = assay: Inhibition of ERK phosphorylation at Tyr204 residues in human DBTRG-05MG cells at 112.4uM after 48 hrs in presence of TMZ by Western blot analysis (reference value: 1); type: cell-based
# RG2 [12] = assay: Induction of apoptosis in rat RG2 cells assessed as phosphorylated caspace-3 expression at 112.4 uM after 48 hrs by Western blot analysis (reference value: 1); type: functional
# [13] = Synergistic cytotoxicity against rat CTX TNA2 cells assessed as synergistic effect index at 134.9 uM after 48 hrs in presence of 103 uM TMZ by MTT assay; type: cell-based; conditions: ctx tna2, 48 h
# DBTRG-05MG [14] = assay: Induction of DNA damage in human DBTRG-05MG cells assessed as ATR phosphorylation at ser428 residues at 112.4 uM after 48 hrs by Western blot analysis (reference value: 1); type: functional
# RG2 [15] = assay: Induction of apoptosis in rat RG2 cells assessed as phosphorylated PARP expression at 112.4 uM after 48 hrs by Western blot analysis (reference value: 1); type: functional
# DBTRG-05MG [16] = assay: Induction of cell cycle arrest in human DBTRG-05MG cells assessed as CyclinA expression at 112.4 uM after 48 hrs by Western blot analysis (reference value: 1); type: functional
# DBTRG-05MG [17] = assay: Inhibition of ERK phosphorylation at Tyr204 residues in human DBTRG-05MG cells at 112.4uM after 48 hrs by Western blot analysis (reference value: 1); type: cell-based
# DBTRG-05MG [18] = assay: Induction of cell cycle arrest in human DBTRG-05MG cells assessed as accumulation at G0/G1 phase at 112.4 uM after 24 hrs by propidium iodide staining based flow cytometric analysis (reference value: 47.16 +/- 1.55%); type: functional
# RG2 [19] = assay: Synergistic cytotoxicity against rat RG2 cells assessed as combination index at 112.4 uM after 48 hrs in presence of 412.1 uM TMZ by MTT assay; type: functional
# DBTRG-05MG [20] = assay: Induction of cell cycle arrest in human DBTRG-05MG cells assessed as p53 expression at 112.4 uM after 48 hrs by Western blot analysis (reference value: 1); type: functional
# DBTRG-05MG [21] = assay: Induction of cell cycle arrest in human DBTRG-05MG cells assessed as accumulation at G0/G1 phase at 112.4 uM after 48 hrs by propidium iodide staining based flow cytometric analysis (reference value: 47.16 +/- 1.55%); type: functional
# RG2 [22] = assay: Synergistic cytotoxicity against rat RG2 cells assessed as combination index at 134.9 uM after 48 hrs in presence of 412.1 uM TMZ by MTT assay; type: functional
# DBTRG-05MG [23] = assay: Induction of cell cycle arrest in human DBTRG-05MG cells assessed as p53 expression at 112.4 uM after 48 hrs in presence of TMZ by Western blot analysis (reference value: 1); type: functional
# RG2 [24] = assay: Induction of cell cycle arrest in rat RG2 cells assessed as accumulation at G2/M phase at 112.4 uM after 48 hrs in presence of TMZ by propidium iodide staining based flow cytometric analysis (reference value: 20.04 +/- 0.55%); type: functional
# DBTRG-05MG [25] = assay: Induction of apoptosis in human DBTRG-05MG cells assessed as Bax expression at 112.4 uM after 48 hrs in presence of TMZ by Western blot analysis (reference value: 1); type: functional
# RG2 [26] = assay: Induction of DNA damage in rat RG2 cells assessed as ATM phosphorylation at ser1981 residues at 112.4 uM after 48 hrs in presence of TMZ by Western blot analysis (reference value: 1); type: functional
# RG2 [27] = assay: Induction of apoptosis in rat RG2 cells assessed as Bax expression at 206 uM after 48 hrs by Western blot analysis (reference value: 1); type: functional
# [28] = Effect on ERK expression in rat RG2 cells at 206 uM after 48 hrs by Western blot analysis (reference value: 1); type: functional
# RG2 [29] = assay: Induction of cell cycle arrest in rat RG2 cells assessed as accumulation at S phase at 206 uM after 48 hrs by propidium iodide staining based flow cytometric analysis (reference value: 20.15 +/- 2.44%); type: functional
# RG2 [30] = assay: Induction of DNA damage in rat RG2 cells assessed as ATR phosphorylation at ser428 residues at 206 uM after 48 hrs by Western blot analysis (reference value: 1); type: functional
# DBTRG-05MG [31] = assay: Induction of cell cycle arrest in human DBTRG-05MG cells assessed as p21 expression at 206 uM after 48 hrs by Western blot analysis (reference value: 1); type: functional
# RG2 [32] = assay: Induction of apoptosis in rat RG2 cells assessed as increase in chromatin condensation at 206 uM after 48 hrs by TUNEL assay; type: functional, cell-based
# RG2 [33] = assay: Induction of cell cycle arrest in rat RG2 cells assessed as accumulation at G0/G1 phase at 206 uM after 48 hrs by propidium iodide staining based flow cytometric analysis (reference value: 57.81 +/- 1.9%); type: functional
compound,measurement,setting,value
C[C@@H]1CC[C@H]2C(C)(C)[C@H]3C[C@@]12CC[C@@]3(C)O [CEDROL],Activity,RG2 [1],18.1%
same,fold change (FC),DBTRG-05MG [2],0.8
same,Activity_index,RG2 [3],0.89
same,CI,[4],0.88
same,Activity,RG2 [5],16.92%
same,Activity,DBTRG-05MG [6],41.16%
same,Activity_index,[7],0.58
same,Activity,DBTRG-05MG [8],Active
same,Activity,RG2 [9],11.96%
same,fold change (FC),DBTRG-05MG [10],0.4
same,fold change (FC),DBTRG-05MG [11],0.5
same,fold change (FC),RG2 [12],1.1
same,Activity_index,[13],0.28
same,fold change (FC),DBTRG-05MG [14],1.5
same,fold change (FC),RG2 [15],0.6
same,fold change (FC),DBTRG-05MG [16],0.6
same,fold change (FC),DBTRG-05MG [17],0.9
same,Activity,DBTRG-05MG [18],57.59%
same,CI,RG2 [19],0.99
same,fold change (FC),DBTRG-05MG [20],0.9
same,Activity,DBTRG-05MG [21],53.13%
same,CI,RG2 [22],0.93
same,fold change (FC),DBTRG-05MG [23],2.2
same,Activity,RG2 [24],35.71%
same,fold change (FC),DBTRG-05MG [25],1.7
same,fold change (FC),RG2 [26],1
Cn1nnc2c(C(N)=O)ncn2c1=O [TEMOZOLOMIDE],fold change (FC),RG2 [27],1.1
same,fold change (FC),[28],1.1
same,Activity,RG2 [29],18.32%
same,fold change (FC),RG2 [30],0.8
same,fold change (FC),DBTRG-05MG [31],2.1
same,Activity,RG2 [32],Active
same,Activity,RG2 [33],26.97%

# Source: ChEMBL document CHEMBL4699511, “Cedrol, a Sesquiterpene Alcohol, Enhances the Anticancer Efficacy of Temozolomide in Attenuating Drug Resistance via Regulation of the DNA Damage Response and MGMT Expression” (J Nat Prod, 2020)
